Test results published in US20050037067A1, “3,7-Diazabicyclo [3.3.1]formulations as anti-arrhythmic compounds” (priority 2001, published 2005).
Where a name gives a salt, the structure may show the parent alone.

Experiment: Solubility of the salt in vehicle compared to water alone
Assay type: physicochemical
Method: Salt was dissolved in the 40/60 (w/w %) hydroxypropyl-β-cyclodextrin/water vehicle.
The solubility of the salt was almost 40 times higher in this vehicle compared to water alone.
Salt was dissolved in PEG 400, ethanol and the surfactant Solutol™ (BASF; comprises polyethylene glycol esters of 12-OH-stearic acid). Water was added to the final volume. The solubility of the benzenesulphonate salt was approximately 4 times higher in this vehicle than it is in water alone.

solubility in vehicle compared to water alone (vehicle Polyethyleneglycol 400/Ethanol/Solutol/Water (40/10/5/45 w/w %)): approximately 4 times
solubility in vehicle compared to water alone (vehicle hydroxypropyl-β-cyclodextrin/water (40/60 w/w %)): ~40 times
SMILES: CC(C)(C)C(=O)CN1CC2CN(CCCNc3ccc(C#N)cc3)CC(C1)O2 [Compound A, benzenesulphonic acid salt, 4-({3-[7-(3,3-dimethyl-2-oxobutyl)-9-oxa-3,7-diazabicyclo[3.3.1]non-3-yl]propyl}amino)benzonitrile]
